Experimental data from publication PMC12029531, “Selenium in Action: Exploring the Biological Wonders of Hydroselenite Salts” (Molecules, 2025).

experiment: Water solubility by 1H-qNMR in D2O; type: physicochemical; details: 298 K

SMILES	Water Solubility
COc1cc(Cc2cnc(N)nc2N)cc(OC)c1OC [AB-2, trimethoprim]	284 µg/mL
Nc1ccc(S(=O)(=O)Nc2ncccn2)cc1 [AB-4, sulfadiazine]	112 µg/mL
NNC(=O)c1ccncc1 [AB-5, isoniazid]	5350 µg/mL
